Laboratory results: publication PMC12651750 (Cells, 2025)
Like-named read-outs stand apart in the source and are kept apart here.

What was measured:
[1] = system: CCRF-CEM, human leukemic lymphoblasts; experiment: Anti-proliferation MTT / CCK-8 assay; type: cell-based; conditions: read-out: IC50 proliferation CCRF-CEM, heading: IC50 proliferation CCRF-CEM, 72 h, mean ± SEM of three independent assays
From the text: (§1) K562, human erythroleukemia line; HL-60, human leukemic cell line; Jurkat, human leukemic T cell line; CCRF-CEM, human leukemic lymphoblasts; U937, human histiocytic lymphoma; HCT-116, human colorectal cancer cell line; A549, human lung cancer cell line; Hep G2, human hepatoma cell lines; MDA-MB-231, MCF-7, human breast cancer cell line; 4T1, mouse breast cancer cell line; PC12, pheochromocytoma of the rat adrenal medulla; HUVEC, human umbilical vein endothelial cells. These cells were purchased from the National Collection of Authenticated Cell Cultures (Shanghai, China).
(§2) The concentration of the cell suspension was adjusted to the appropriate concentration with fresh medium (the number of cells was about 30–40% of the bottom area of the well plate). 150 μL (about 1 × 10^4 cells) of prepared cell suspension containing different concentrations of NBU-2 were added to a 96-microtiter plate, and 3 replicate wells were set up for each concentration. If the cells were adherent, the cells were first allowed to grow overnight in 96 microtiter plates until the cells were adherent, and then the old medium was replaced with the drug-containing medium. The plates were incubated in a 5% CO2 cell incubator at 37 °C for 72 h. Then, 15 μL of MTT solution was added to each well, 100 μL of 10% SDS solution (pH = 2) was added after 4 h, and the plate was incubated at 37 °C with 5% CO2 overnight to fully dissolve the crystals. Finally, the absorbance value of each well was measured at 570 and 655 nm.
(§3) The cells (about 1 × 10^4 cells) were treated with different concentrations of NBU-2 and DMSO control for different times (24 h, 48 h, 72 h), with 3 replicate wells for each concentration. Incubate at 37 °C in a 5% CO2 cell culture incubator. After a predetermined time, 10 μL of CCK-8 was added to each well and incubated for 2 h. The absorbance was measured at the excitation wavelength of 450 nm.

[2] = system: 4T1, mouse breast cancer cell line; experiment: Anti-proliferation MTT / CCK-8 assay; type: cell-based; conditions: 72 h
From the text: as §1, §2, §3

[3] = system: K562, human erythroleukemia line; experiment: Anti-proliferation MTT / CCK-8 assay; type: cell-based; conditions: K562, read-out: IC50 proliferation K562, heading: IC50 proliferation K562, 72 h, mean ± SEM of three independent assays
From the text: as §1, §2, §3

[4] = system: Hep G2, human hepatoma cell lines; experiment: Anti-proliferation MTT / CCK-8 assay; type: cell-based; conditions: HepG2, read-out: IC50 proliferation HepG2, heading: IC50 proliferation HepG2, 72 h, mean ± SEM of three independent assays
From the text: as §1, §2, §3

[5] = system: HL-60, human leukemic cell line; experiment: Anti-proliferation MTT / CCK-8 assay; type: cell-based; conditions: HL-60, read-out: IC50 proliferation HL-60, heading: IC50 proliferation HL-60, 72 h, mean ± SEM of three independent assays
From the text: as §1, §2, §3

[6] = system: PC12, pheochromocytoma of the rat adrenal medulla; experiment: Anti-proliferation MTT / CCK-8 assay; type: cell-based; conditions: PC-12, 72 h
From the text: as §1, §2, §3

[7] = system: U937, human histiocytic lymphoma; experiment: Anti-proliferation MTT / CCK-8 assay; type: cell-based; conditions: U-937, read-out: IC50 proliferation U937, heading: IC50 proliferation U937, 72 h, mean ± SEM of three independent assays
From the text: as §1, §2, §3

[8] = system: A549, human lung cancer cell line; experiment: Anti-proliferation MTT / CCK-8 assay; type: cell-based; conditions: A549, read-out: IC50 proliferation A549, heading: IC50 proliferation A549, 72 h, mean ± SEM of three independent assays
From the text: as §1, §2, §3

[9] = system: MDA-MB-231, human breast cancer cell line; experiment: Anti-proliferation MTT / CCK-8 assay; type: cell-based; conditions: MDA-MB-231, read-out: IC50 proliferation MDA-MB-231, heading: IC50 proliferation MDA-MB-231, 72 h, mean ± SEM of three independent assays
From the text: as §1, §2, §3

[10] = system: HCT-116, human colorectal cancer cell line; experiment: Anti-proliferation MTT / CCK-8 assay; type: cell-based; conditions: HCT-116, read-out: IC50 proliferation HCT-116, heading: IC50 proliferation HCT-116, 72 h, mean ± SEM of three independent assays
From the text: as §1, §2, §3

[11] = system: Jurkat, human leukemic T cell line; experiment: Anti-proliferation MTT / CCK-8 assay; type: cell-based; conditions: Homo sapiens, Jurkat, 72 h
Protocol: These cells were purchased from the National Collection of Authenticated Cell Cultures (Shanghai, China).
as §2, with “crystals.” for “crystals. Finally, the absorbance value of each well was measured at 570 and 655 nm.”
as §3

HDAC1 = HDAC1 (Homo sapiens, UniProt Q13547); experiment: In vitro HDAC enzymatic inhibition assay (HDAC kit, fluorescence)
HDAC1, sequence (Q13547 whole entry): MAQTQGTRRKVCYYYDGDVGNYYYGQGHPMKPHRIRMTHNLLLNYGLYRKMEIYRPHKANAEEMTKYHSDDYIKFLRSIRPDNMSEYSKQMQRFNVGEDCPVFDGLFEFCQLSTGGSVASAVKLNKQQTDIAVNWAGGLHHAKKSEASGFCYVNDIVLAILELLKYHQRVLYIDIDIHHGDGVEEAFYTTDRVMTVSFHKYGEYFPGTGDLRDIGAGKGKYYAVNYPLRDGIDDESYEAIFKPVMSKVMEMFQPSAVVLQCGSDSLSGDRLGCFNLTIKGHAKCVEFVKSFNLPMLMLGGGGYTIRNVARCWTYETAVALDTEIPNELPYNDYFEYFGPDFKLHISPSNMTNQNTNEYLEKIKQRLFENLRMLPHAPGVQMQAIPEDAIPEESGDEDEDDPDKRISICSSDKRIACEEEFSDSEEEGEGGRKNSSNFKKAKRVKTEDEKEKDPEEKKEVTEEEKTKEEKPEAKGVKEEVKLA
Protocol: (§4) Enzymatic assays were performed by Shanghai ChemPartner according to the HDAC kit protocol. […] Fluorescence was recorded at 355 nm excitation and 460 nm emission on a Synergy MX reader (PerkinElmer Life Sciences, Boston, MA, USA). IC50 values were derived from dose–response curves.

HDAC6 = biological target: T1, HDAC6 (Homo sapiens, UniProt Q9UBN7); experiment: as above
T1 sequence (Q9UBN7 1-1215): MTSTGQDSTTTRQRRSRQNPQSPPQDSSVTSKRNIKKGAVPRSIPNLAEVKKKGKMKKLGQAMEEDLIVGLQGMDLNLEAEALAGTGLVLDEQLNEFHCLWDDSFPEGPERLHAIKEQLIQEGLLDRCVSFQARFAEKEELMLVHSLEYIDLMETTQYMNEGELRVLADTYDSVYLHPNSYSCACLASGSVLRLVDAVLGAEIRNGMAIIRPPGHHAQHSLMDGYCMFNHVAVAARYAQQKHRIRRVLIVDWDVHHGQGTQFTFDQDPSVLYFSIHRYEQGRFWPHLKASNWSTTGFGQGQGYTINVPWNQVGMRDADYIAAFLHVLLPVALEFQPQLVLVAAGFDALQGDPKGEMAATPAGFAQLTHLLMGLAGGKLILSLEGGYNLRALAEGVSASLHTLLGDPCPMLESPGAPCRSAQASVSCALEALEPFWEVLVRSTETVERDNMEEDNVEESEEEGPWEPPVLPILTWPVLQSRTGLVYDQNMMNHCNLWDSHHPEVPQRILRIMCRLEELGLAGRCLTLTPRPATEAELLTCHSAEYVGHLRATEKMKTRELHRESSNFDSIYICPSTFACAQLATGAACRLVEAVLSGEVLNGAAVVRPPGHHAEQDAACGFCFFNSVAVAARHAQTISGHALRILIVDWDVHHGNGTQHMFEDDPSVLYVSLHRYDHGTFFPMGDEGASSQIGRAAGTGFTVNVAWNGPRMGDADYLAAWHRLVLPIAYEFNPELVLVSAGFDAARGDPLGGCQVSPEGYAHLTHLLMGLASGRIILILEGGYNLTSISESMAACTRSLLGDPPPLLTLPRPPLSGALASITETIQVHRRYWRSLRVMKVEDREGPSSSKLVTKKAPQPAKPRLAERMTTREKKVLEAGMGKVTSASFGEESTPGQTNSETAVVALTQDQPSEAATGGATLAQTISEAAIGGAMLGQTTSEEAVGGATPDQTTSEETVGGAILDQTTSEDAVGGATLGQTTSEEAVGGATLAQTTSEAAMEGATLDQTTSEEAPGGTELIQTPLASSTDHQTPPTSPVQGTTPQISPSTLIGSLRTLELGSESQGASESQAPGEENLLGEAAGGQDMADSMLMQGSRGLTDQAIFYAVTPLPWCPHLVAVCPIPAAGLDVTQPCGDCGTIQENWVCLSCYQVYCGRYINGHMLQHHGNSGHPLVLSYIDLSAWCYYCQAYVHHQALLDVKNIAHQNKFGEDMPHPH
Protocol: as §4

Compound	IC50 [1] [µM]	IC50 [2] [µM]	IC50 [3] [µM]	IC50 [4] [µM]	IC50 [5] [µM]	IC50 [6] [µM]	IC50 [7] [µM]	IC50 [8] [µM]	IC50 [9] [µM]	IC50 [10] [µM]	IC50 ([11]; read-out: IC50 against Jurkat cells) [µM]	IC50 ([11]; read-out: IC50 proliferation Jurkat, heading: IC50 proliferation Jurkat, mean ± SEM of three independent assays) [µM]	IC50 (HDAC1) [µM]	IC50 (HDAC6) [µM]
Nc1cc(F)ccc1NC(=O)c1ccc(CNC(=O)/C=C/c2cccnc2)cc1 [Chidamide, reference compound]	1.66 ± 0.34	> 0.05	1.65 ± 0.64	0.5 ± 0.02	0.86 ± 0.07	> 0.05	1.31 ± 0.38	> 50	9.75 ± 1.78	3.86 ± 1.09	2.23	2.23 ± 0.22	–	–
O=C(NO)c1ccc(CNc2ccnc3ccccc23)cc1 [NBU-1, N-hydroxy-4-((quinolin-4-ylamino)methyl)benzamide]	–	–	–	–	–	–	–	–	–	–	–	–	0.242 ± 0.015	0.114 ± 0.028
